Test results published in patent US9149536B2, “Conjugated antimicrobial agents” (priority 2009, dated 2015).
≈ marks a conversion by molar mass, not a printed value. Read-outs that look alike come from different tables or passages of the source.

Experiments:
B. subtilis ATCC 6633 = experiment: MIC, double-microdilution, B. subtilis ATCC 6633; format: cell-based; conditions: for MIC B. subtilis ATCC 6633: Table 4
E. coli AG100A = experiment: MIC, double-microdilution, E. coli AG100A; format: cell-based, Escherichia coli
E. coli AG100B = experiment: MIC, double-microdilution, E. coli AG100B; format: cell-based, Escherichia coli
Source text: AG100B and AG100A are two kanamycin resistant Escherichia coli strains expressing APH(3′)-I aminoglycoside resistance enzyme.

E. coli XL1 blue = experiment: microbe, parasite or virus in culture; format: cell-based; conditions: for MIC XL1 blue: background strain
Experimental: (§1) For this purpose, exemplary conjugates, according to some embodiments of the present invention, were tested against five isogenic E. coli strains. E. coli (pSF815) and E. coli (pET9d) are laboratory resistant strains derived by transformation of E. coli XL1 blue (background strain) with the pSF815 and pET9d plasmids, respectively. […] The last two isogenic strains used were E. coli BL21 (background strain) and E. coli (pETSACG1). […] These three enzymes are among the most prevalent modes of resistance found in aminoglycosides resistance strains.
(§2) The MIC ratios were calculated by dividing the MIC value against resistant strain to that against the respective background strain.

E. coli XL1 blue/pET9d = experiment: microbe, parasite or virus in culture; format: cell-based; conditions: for MIC ratio XL1 blue/pET9d to XL1 blue: MIC resistant strain divided by MIC background strain; for MIC XL1 blue/pET9d: expressed enzyme APH(3′)-Ia
Experimental: as §1, §2

E. coli ATCC 25922 = experiment: MIC, double-microdilution, E. coli ATCC 25922; format: cell-based, Escherichia coli; conditions: for MIC E. coli ATCC 25922: Table 4
E. coli R477-100 = experiment: MIC, double-microdilution, E. coli R477-100; format: cell-based, Escherichia coli
APH(3′)-IIIa enzyme = biological target: T1, APH(3′)-IIIa enzyme (Enterococcus faecalis, UniProt P0A3Y5); format: biochemical
T1 construct: made in house; host or cells: E. coli BL21 carrying pETSACG1 (inferred)
T1 sequence (P0A3Y5 whole entry): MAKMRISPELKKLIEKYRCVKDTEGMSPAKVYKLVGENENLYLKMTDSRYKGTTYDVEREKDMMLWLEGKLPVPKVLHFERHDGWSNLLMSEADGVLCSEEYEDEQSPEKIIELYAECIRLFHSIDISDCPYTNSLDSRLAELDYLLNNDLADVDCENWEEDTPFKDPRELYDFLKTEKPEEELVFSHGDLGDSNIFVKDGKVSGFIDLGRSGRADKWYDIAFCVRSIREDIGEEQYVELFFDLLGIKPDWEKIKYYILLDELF

MRSA ATCC 43300 = experiment: microbe, parasite or virus in culture; format: cell-based, S. aureus; conditions: Table 4
E. coli BL21/pETSACG1 = experiment: microbe, parasite or virus in culture; format: cell-based; conditions: for MIC ratio BL21/pETSACG1 to BL21: MIC resistant strain divided by MIC background strain; for MIC BL21/pETSACG1: expressed enzyme APH(3′)-IIIa
Experimental: as §1, §2

E. coli BL21 = experiment: microbe, parasite or virus in culture; format: cell-based; conditions: background strain
Experimental: as §1, §2

E. coli XL1 blue/pSF815 = experiment: microbe, parasite or virus in culture; format: cell-based; conditions: for MIC ratio XL1 blue/pSF815 to XL1 blue: MIC resistant strain divided by MIC background strain; for MIC XL1 blue/pSF815: expressed enzyme AAC(6′)-APH(2″)
Experimental: as §1, §2

E. coli DNA gyrase = E. coli DNA gyrase (Escherichia coli, UniProt P0AES4+P0AES6)
E. coli DNA gyrase, sequence (P0AES4 whole entry, one chain of several): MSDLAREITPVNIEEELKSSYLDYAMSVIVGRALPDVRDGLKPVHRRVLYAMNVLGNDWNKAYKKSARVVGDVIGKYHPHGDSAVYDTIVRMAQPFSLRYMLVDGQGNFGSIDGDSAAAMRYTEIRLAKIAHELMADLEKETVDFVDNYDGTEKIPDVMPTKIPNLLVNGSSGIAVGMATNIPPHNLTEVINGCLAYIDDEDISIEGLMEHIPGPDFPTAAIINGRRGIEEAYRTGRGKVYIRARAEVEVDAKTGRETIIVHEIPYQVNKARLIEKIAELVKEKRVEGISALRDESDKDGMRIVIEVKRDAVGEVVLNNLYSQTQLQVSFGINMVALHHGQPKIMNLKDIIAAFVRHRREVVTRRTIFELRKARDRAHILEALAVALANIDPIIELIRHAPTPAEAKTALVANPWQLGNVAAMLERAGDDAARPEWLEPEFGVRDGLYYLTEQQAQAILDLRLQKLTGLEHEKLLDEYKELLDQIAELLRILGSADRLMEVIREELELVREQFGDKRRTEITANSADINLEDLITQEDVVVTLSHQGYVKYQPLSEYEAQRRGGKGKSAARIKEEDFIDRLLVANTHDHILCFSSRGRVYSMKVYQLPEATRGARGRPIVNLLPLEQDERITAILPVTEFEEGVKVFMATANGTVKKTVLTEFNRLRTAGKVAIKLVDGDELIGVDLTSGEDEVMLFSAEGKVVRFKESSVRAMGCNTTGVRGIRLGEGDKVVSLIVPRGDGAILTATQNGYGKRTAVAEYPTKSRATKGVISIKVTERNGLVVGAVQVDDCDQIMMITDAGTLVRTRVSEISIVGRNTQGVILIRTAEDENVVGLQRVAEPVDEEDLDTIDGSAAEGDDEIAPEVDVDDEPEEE

E. coli TopoIV = biological target: T2, E. coli TopoIV (Escherichia coli, UniProt P0AFI2+P20083); experiment: TopoIV relaxation assay; format: biochemical
T2 construct: purchased Inspiralis Ltd
T2 sequence (P0AFI2 whole entry): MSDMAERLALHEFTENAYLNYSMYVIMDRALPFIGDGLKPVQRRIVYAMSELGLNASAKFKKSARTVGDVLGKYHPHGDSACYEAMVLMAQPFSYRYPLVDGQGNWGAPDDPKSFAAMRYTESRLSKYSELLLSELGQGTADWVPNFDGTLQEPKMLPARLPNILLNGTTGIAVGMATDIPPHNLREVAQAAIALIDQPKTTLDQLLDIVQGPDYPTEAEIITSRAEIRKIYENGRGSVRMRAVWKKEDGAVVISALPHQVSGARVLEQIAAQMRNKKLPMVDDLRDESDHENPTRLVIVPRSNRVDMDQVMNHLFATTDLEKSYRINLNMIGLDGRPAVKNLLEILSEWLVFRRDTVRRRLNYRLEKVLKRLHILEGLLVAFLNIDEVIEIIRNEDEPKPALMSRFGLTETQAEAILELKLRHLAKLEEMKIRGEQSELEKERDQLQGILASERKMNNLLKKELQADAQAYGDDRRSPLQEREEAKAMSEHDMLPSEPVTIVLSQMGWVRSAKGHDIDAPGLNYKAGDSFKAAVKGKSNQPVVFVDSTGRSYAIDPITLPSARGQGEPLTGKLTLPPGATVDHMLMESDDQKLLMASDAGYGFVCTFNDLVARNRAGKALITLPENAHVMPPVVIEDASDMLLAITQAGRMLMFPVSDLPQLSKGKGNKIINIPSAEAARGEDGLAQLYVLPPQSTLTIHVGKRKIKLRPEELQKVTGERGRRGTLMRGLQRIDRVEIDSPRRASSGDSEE
T2 sequence (P20083 whole entry): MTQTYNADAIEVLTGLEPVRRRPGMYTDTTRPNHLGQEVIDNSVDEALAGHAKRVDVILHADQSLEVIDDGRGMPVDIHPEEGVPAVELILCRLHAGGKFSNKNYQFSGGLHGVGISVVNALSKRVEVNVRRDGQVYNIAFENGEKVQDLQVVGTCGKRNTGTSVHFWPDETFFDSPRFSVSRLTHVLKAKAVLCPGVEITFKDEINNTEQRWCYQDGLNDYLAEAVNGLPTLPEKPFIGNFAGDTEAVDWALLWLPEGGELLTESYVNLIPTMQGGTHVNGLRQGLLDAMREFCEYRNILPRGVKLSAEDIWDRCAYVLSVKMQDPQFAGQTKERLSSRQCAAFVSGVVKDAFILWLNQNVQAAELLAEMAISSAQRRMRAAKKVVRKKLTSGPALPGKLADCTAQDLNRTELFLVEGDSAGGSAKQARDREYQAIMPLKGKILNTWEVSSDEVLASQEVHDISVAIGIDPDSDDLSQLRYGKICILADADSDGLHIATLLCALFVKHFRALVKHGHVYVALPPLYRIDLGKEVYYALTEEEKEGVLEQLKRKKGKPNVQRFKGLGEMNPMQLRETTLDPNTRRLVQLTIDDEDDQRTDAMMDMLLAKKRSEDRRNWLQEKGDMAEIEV
Experimental: DNA relaxation activity was assayed with supercoiled pBR322 DNA as a substrate (Inspiralis Ltd) according to the manufacturer's protocol. The standard reaction mixture (20 μl) contained 40 mM HEPES-KOH pH 7.6, 100 mM potassium glutamate, 10 mM Mg(OAc)2, 10 mM dithiothreitol, 1 mM ATP, 50 μg/ml albumin, 5 ng/μl […] pBR322, and TopoIV protein. The reaction mixture was incubated at 37° C. for 30 minutes, and then was terminated by addition of 2 μl 0.5 M EDTA, 3.5 μl loading dye and 20 μl chloroform/isoamyl alcohol (24:1) mixture. […] One unit of relaxation activity was defined as the amount of TopoIV required to relax 0.1 μg of plasmid in 30 minutes.
(§3) Relaxation assays were conducted with E. coli TopoIV.

[1] = test system: bacterial protein synthesis; experiment: In vitro coupled transcription/translation assay, E. coli S30 extract; format: biochemical; conditions: luciferase readout
Experimental: Protein translation inhibition by the different compounds was quantified in a coupled transcription/translation assay by using E. coli S30 extracts for circular DNA with the pBEST/uc plasmid (Promega), according to the manufacturer's protocol.
Translation reactions (25 μl) that contained variable concentrations of the tested compound were incubated at 37° C. for 60 minutes, cooled on ice for 5 minutes, and diluted with a dilution reagent (tris-phosphate buffer (25 mM, pH 7.8), DTT (2 mM), 1,2-diaminocyclohexanetetraacetate (2 mM), glycerol (10%), Triton X-100 (1%) and BSA (1 mg/ml)) into 96-well plates. The luminescence was measured immediately after the addition of the Luciferase Assay Reagent (50 μl; Promega), and the light emission was recorded with a Victor3™ Plate Reader (Perkin-Elmer). The concentration of half-maximal inhibition (IC50) was obtained from fitting concentration-response curves to the data of at least two independent experiments by using Grafit 5 software (Leatherbarrow, R. J. Erithacus Software Ltd: Horley, U.K., 2001).
as §3

[2] = Table 4, kanamycin resistant, APH(3′)-I
[3] = compound as substrate of APH(3′)-IIIa

SMILES	MIC B. subtilis ATCC 6633 (B. subtilis ATCC 6633)	MIC E. coli AG100A (E. coli AG100A; [2])	MIC MRSA ATCC 43300 (MRSA ATCC 43300)	MIC E. coli AG100B (E. coli AG100B; [2])	MIC ratio BL21/pETSACG1 to BL21 (E. coli BL21/pETSACG1)	MIC BL21/pETSACG1 (E. coli BL21/pETSACG1)	MIC BL21 (E. coli BL21)	MIC XL1 blue (E. coli XL1 blue)	MIC ratio XL1 blue/pSF815 to XL1 blue (E. coli XL1 blue/pSF815)	MIC XL1 blue/pSF815 (E. coli XL1 blue/pSF815)	MIC ratio XL1 blue/pET9d to XL1 blue (E. coli XL1 blue/pET9d)	MIC XL1 blue/pET9d (E. coli XL1 blue/pET9d)	MIC E. coli ATCC 25922 (E. coli ATCC 25922)	MIC E. coli R477-100 (E. coli R477-100; Table 4)	other results
NCC1O[C@@H](O[C@H]2C(N)C[C@H](NCc3cn(CCN4CCN(c5cc6c(cc5F)c(=O)c(C(=O)O)cn6C5CC5)CC4)nn3)C(OC3O[C@@H](CO)C(O)C(N)[C@@H]3O)C2O)C(O)C(O)[C@H]1O (some centres unmarked) [Compound 11a, 4-(1-N-kanamycinmethyl)-1-(2-(ciprofloxacin)ethyl)-1H-1,2,3-triazole]	–	–	–	–	–	–	–	–	–	–	–	–	–	–	MIC (B. subtilis ATCC 6633; Bacillus subtilis, ATCC6633, read-out: MIC Bacillus subtilis): 1.5 µg/mL (≈ 1.63 µM); MIC (E. coli AG100A; Escherichia coli, AG100A, read-out: MIC E. coli AG100A, Table 6): 0.75 µg/mL (≈ 0.813 µM); MIC (E. coli AG100B; Escherichia coli, AG100B, read-out: MIC E. coli AG100B, Table 6): 12 µg/mL (≈ 13 µM); MIC (E. coli XL1 blue; Escherichia coli, XL1BLUE, Table 6, read-out: MIC E. coli XL1 blue): 6 µg/mL (≈ 6.5 µM); MIC (E. coli XL1 blue/pET9d; Escherichia coli, XL1BLUE/PET9D, Table 6, read-out: MIC E. coli XL1 blue/pET9d-aph(3′)-Ia): 6 µg/mL (≈ 6.5 µM); MIC (E. coli ATCC 25922; Escherichia coli, ATCC25922, read-out: MIC E. coli 25922): 3 µg/mL (≈ 3.25 µM); MIC (E. coli R477-100; Escherichia coli, R477100, read-out: MIC E. Coli R477-100): 6 µg/mL (≈ 6.5 µM)
NCC1OC(OC2C(N)CC(NCc3cn(Cc4ccc(CN5CCN(c6cc7c(cc6F)c(=O)c(C(=O)O)cn7C6CC6)CC5)cc4)nn3)C(OC3OC(CO)C(O)C(N)C3O)C2O)C(O)C(O)C1O (centres unmarked) [Compound 11i, 4-(1-N-kanamycinmethyl)-1-(4-((ciprofloxacin)methyl)benzyl)-1H-1,2,3-triazole]	–	–	–	–	–	–	–	–	–	–	–	–	–	–	MIC Bacillus subtilis (B. subtilis ATCC 6633; Table 6): 3 µg/mL (≈ 3 µM); MIC E. coli AG100A (E. coli AG100A; Table 6): 0.75 µg/mL (≈ 0.751 µM); MIC E. coli AG100B (E. coli AG100B; Table 6): 12 µg/mL (≈ 12 µM); MIC E. coli XL1 blue (E. coli XL1 blue; Table 6): 3 µg/mL (≈ 3 µM); MIC E. coli XL1 blue/pET9d-aph(3′)-Ia (E. coli XL1 blue/pET9d; Table 6): 3 μg/ml; MIC E. coli 25922 (E. coli ATCC 25922; Table 6): 6 µg/mL (≈ 6.01 µM); MIC E. coli R477-100 (E. coli R477-100; Table 6): 6 µg/mL (≈ 6.01 µM)
NCC1OC(OC2C(C(=O)NCc3cn(CC(O)CN4CCN(c5cc6c(cc5F)c(=O)c(C(=O)O)cn6C5CC5)CC4)nn3)OC(OC3C(O)C(N)CC(N)C3OC3OC(CN)C(O)C(O)C3N)C2O)C(N)C(O)C1O (centres unmarked) [Compound 1m, N-((1-(2-hydroxy-3-(ciprofloxacin)propyl)-1H-1,2,3-triazol-4-yl)-5″-methyl)neomycin carboxamide]	3 µg/mL (≈ 2.74 µM)	0.75 µg/mL (≈ 0.684 µM)	12 µg/mL (≈ 10.9 µM)	12 µg/mL (≈ 10.9 µM)	1	0.2 μg/ml	0.2 µg/mL (≈ 0.182 µM)	6 µg/mL (≈ 5.47 µM)	8	48 μg/ml	2	12 μg/ml	3 µg/mL (≈ 2.74 µM)	6 µg/mL (≈ 5.47 µM)	Km (APH(3′)-IIIa enzyme): 87 µM; Km (APH(3′)-IIIa enzyme; [3]): 86.8 ± 8.9 µM; kcat (APH(3′)-IIIa enzyme; [3]): 2.5 ± 0.1 s⁻¹; MIC against E. coli (pETSACG1) (E. coli BL21/pETSACG1; molar expression of 0.2 μg/ml): 5.5 μM
NCC1OC(OC2C(C(=O)NCc3cn(Cc4ccc(CN5CCN(c6cc7c(cc6F)c(=O)c(C(=O)O)cn7C6CC6)CC5)cc4)nn3)OC(OC3C(O)C(N)CC(N)C3OC3OC(CN)C(O)C(O)C3N)C2O)C(N)C(O)C1O (centres unmarked) [Compound 1p, N-((1-(4-((ciprofloxacin)methyl)benzyl)-1H-1,2,3-triazol-4-yl)-5″-methyl)neomycin carboxamide]	3 µg/mL (≈ 2.63 µM)	1.5 µg/mL (≈ 1.31 µM)	3 µg/mL (≈ 2.63 µM)	12 µg/mL (≈ 10.5 µM)	1	0.4 μg/ml	0.4 µg/mL (≈ 0.35 µM)	6 µg/mL (≈ 5.25 µM)	1	6 μg/ml	1	6 μg/ml	6 µg/mL (≈ 5.25 µM)	6 µg/mL (≈ 5.25 µM)	–
NCC1OC(OC2C(C(=O)NCc3cn(Cc4cccc(CN5CCN(c6cc7c(cc6F)c(=O)c(C(=O)O)cn7C6CC6)CC5)c4)nn3)OC(OC3C(O)C(N)CC(N)C3OC3OC(CN)C(O)C(O)C3N)C2O)C(N)C(O)C1O (centres unmarked) [Compound 1o, N-((1-(3-((ciprofloxacin)methyl)benzyl)-1H-1,2,3-triazol-4-yl)-5″-methyl)neomycin carboxamide]	3 µg/mL (≈ 2.63 µM)	0.75 µg/mL (≈ 0.657 µM)	6 µg/mL (≈ 5.25 µM)	12 µg/mL (≈ 10.5 µM)	1	0.4 μg/ml	0.4 µg/mL (≈ 0.35 µM)	6 µg/mL (≈ 5.25 µM)	4	24 μg/ml	1	6 μg/ml	6 µg/mL (≈ 5.25 µM)	6 µg/mL (≈ 5.25 µM)	–
NCC1OC(OC2C(C(=O)Nc3ccc(-c4cn(CC(O)CN5CCN(c6cc7c(cc6F)c(=O)c(C(=O)O)cn7C6CC6)CC5)nn4)cc3)OC(OC3C(O)C(N)CC(N)C3OC3OC(CN)C(O)C(O)C3N)C2O)C(N)C(O)C1O (centres unmarked) [Compound 1f, N-(4-(1-(2-hydroxy-3-(ciprofloxacin)propyl)-1H-1,2,3-triazol-4-yl)-5″-phenyl)neomycin carboxamide]	6 µg/mL (≈ 5.18 µM)	0.75 µg/mL (≈ 0.648 µM)	24 µg/mL (≈ 20.7 µM)	6 µg/mL (≈ 5.18 µM)	–	–	–	–	–	–	–	–	3 µg/mL (≈ 2.59 µM)	6 µg/mL (≈ 5.18 µM)	IC50 fold superior than that of Cipro in DNA gyrase assay (E. coli DNA gyrase; general statements name DNA gyrase and TopoIV together): 18 fold; IC50 (E. coli DNA gyrase; read-out: DNA gyrase IC50, supercoiling assay, relaxed pBR322): 73 ± 5 nM; IC50 fold superior than Cipro in TopoIV assay (E. coli TopoIV): 19 fold; IC50 (E. coli TopoIV; relaxation assay, supercoiled pBR322): 580 ± 40 nM; IC50 [1]: 2200 ± 600 nM
